Values belong to the compound of their own block, whether it stands above or below them.
What was measured:
[1] = target: MAP/microtubule affinity-regulating kinase 3 (Homo sapiens) (UniProt P27448); assay: Selectivity interaction (Kinase panel (DSF assay)) EUB0001559a MARK3
[2] = target: T1, Dual specificity protein kinase TTK (Homo sapiens) (UniProt P33981); assay: Selectivity interaction (Kinase panel (literature)) EUB0001199aCl TTK; conditions: at 1 µM
T1 sequence (whole entry): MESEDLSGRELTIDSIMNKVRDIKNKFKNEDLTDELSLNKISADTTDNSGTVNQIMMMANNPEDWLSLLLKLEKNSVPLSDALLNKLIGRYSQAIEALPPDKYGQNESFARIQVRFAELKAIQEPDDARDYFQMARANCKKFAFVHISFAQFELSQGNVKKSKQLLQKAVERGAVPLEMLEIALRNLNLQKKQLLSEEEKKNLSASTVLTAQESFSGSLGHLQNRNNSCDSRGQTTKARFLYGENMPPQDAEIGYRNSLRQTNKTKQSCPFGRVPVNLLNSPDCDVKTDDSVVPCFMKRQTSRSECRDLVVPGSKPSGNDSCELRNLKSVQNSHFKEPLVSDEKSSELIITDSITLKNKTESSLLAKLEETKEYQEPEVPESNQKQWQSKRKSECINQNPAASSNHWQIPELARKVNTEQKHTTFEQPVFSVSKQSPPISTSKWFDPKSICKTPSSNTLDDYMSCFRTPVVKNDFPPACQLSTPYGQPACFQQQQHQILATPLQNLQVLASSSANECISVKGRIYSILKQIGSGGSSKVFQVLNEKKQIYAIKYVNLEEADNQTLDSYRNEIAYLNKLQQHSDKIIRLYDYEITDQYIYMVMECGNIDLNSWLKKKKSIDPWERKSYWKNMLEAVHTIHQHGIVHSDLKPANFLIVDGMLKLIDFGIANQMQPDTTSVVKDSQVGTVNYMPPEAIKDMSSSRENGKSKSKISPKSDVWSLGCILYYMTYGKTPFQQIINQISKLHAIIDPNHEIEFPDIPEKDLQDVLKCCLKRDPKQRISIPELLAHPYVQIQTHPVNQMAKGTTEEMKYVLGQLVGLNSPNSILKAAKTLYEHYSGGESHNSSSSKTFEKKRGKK

[3] = target: T2, Cyclin-dependent kinase-like 2 (Homo sapiens) (UniProt Q92772); assay: Selectivity interaction (KinomeScan (DiscoverX)) EUB0001079a CDKL2; conditions: at 1 µM
T2 sequence (whole entry): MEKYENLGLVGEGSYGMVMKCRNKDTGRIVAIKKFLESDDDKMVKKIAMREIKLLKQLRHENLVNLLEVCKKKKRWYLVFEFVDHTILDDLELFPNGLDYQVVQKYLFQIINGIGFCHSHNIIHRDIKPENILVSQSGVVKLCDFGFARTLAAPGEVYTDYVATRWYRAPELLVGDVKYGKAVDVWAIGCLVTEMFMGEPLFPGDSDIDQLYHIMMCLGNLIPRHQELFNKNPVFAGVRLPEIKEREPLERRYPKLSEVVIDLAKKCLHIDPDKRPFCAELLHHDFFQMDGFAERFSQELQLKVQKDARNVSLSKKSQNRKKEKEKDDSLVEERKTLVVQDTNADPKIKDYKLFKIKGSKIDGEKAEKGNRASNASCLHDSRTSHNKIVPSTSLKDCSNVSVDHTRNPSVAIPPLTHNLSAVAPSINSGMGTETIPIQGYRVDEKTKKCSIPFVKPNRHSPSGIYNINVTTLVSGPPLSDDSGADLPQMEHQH

[4] = target: Tyrosine-protein kinase Fer (Homo sapiens) (UniProt P16591); assay: Selectivity interaction (KinomeScan (DiscoverX)) EUB0000618a FER; conditions: at 10 µM
Chain of Tyrosine-protein kinase Fer (Homo sapiens) (P16591 whole entry, looked up): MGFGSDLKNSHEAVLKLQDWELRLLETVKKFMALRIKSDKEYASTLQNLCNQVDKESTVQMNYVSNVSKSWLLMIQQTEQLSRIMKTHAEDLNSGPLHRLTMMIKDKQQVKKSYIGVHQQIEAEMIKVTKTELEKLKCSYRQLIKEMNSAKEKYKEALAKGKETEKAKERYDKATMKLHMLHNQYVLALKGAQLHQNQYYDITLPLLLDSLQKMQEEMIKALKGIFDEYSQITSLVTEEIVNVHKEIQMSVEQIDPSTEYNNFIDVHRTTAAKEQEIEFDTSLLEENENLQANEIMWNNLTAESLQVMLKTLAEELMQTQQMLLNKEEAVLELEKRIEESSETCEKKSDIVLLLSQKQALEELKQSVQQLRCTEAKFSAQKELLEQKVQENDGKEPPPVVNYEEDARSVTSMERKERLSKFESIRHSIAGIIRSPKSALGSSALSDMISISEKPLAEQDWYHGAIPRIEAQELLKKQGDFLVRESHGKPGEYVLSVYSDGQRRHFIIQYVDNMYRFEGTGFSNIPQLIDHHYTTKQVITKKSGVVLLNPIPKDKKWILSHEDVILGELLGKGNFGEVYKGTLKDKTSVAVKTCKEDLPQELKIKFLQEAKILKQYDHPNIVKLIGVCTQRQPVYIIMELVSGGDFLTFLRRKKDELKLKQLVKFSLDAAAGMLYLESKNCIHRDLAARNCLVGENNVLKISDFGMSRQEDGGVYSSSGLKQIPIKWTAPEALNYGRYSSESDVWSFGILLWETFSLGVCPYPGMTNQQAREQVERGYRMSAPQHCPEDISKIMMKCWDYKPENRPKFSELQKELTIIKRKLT

[5] = tested on: Tyrosine-protein kinase ABL1 (Homo sapiens), P00519 [M351T]; conditions: at 10 µM
[6] = target: T3, Serine/threonine-protein kinase RIO1 (Homo sapiens) (UniProt Q9BRS2); conditions: at 10 µM
T3 sequence (whole entry): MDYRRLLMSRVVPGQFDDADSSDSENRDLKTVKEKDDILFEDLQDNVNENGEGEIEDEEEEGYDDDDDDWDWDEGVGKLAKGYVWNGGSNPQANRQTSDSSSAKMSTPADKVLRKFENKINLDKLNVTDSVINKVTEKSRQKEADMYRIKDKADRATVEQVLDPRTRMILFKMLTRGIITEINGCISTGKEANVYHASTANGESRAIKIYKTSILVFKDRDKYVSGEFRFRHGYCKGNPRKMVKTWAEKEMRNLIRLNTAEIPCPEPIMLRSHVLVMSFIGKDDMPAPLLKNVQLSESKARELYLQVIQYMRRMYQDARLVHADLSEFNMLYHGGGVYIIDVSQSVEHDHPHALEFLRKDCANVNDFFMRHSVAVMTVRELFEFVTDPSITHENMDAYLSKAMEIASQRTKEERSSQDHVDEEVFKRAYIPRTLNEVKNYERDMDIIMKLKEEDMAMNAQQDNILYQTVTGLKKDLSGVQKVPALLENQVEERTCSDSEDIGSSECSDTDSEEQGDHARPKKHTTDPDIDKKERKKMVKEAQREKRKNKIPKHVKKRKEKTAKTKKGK

[7] = target: PAS domain-containing serine/threonine-protein kinase (Homo sapiens) (UniProt Q96RG2); assay: Selectivity interaction (Kinase panel (Invitrogen)) EUB0000639a PASK; conditions: at 200 nM
Chain of PAS domain-containing serine/threonine-protein kinase (Homo sapiens) (Q96RG2 whole entry, the tested form may be a part): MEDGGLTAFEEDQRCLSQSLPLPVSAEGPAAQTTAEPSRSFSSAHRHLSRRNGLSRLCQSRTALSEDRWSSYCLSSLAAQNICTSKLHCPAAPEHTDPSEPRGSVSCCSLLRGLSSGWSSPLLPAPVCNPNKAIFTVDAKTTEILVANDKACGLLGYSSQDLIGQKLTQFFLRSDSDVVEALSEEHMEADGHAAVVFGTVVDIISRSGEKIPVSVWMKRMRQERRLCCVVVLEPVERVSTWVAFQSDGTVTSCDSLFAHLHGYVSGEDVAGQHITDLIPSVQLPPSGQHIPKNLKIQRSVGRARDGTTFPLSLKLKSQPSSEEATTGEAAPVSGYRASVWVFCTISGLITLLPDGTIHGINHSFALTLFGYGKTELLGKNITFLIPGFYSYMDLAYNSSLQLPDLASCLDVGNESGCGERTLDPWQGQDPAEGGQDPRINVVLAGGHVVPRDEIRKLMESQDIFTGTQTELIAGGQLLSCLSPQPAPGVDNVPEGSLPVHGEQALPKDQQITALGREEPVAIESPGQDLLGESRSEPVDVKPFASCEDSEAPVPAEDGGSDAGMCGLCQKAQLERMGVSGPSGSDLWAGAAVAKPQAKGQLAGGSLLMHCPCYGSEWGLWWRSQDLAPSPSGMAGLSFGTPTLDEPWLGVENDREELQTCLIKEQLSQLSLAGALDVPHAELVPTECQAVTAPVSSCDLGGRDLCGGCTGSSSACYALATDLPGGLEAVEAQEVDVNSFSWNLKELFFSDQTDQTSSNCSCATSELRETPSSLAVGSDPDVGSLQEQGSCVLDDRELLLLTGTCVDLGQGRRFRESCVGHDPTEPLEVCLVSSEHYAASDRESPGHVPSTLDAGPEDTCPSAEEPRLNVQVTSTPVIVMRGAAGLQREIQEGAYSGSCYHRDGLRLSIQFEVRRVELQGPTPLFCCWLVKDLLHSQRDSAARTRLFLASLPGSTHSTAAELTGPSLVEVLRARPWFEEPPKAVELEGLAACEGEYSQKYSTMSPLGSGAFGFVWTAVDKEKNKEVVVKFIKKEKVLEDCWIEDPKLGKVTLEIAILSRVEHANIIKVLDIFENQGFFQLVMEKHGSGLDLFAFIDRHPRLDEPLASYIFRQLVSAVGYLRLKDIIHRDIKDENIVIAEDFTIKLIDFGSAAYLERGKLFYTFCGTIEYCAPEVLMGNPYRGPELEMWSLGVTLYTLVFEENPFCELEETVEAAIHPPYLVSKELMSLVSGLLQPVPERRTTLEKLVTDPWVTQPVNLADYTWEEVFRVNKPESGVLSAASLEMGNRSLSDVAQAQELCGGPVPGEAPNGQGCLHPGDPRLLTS

[8] = target: Serine/threonine-protein kinase PLK1 (Homo sapiens, UniProt P53350); assay: Selectivity interaction (Kinase panel (Invitrogen)) EUB0000639a PLK1; conditions: at 200 nM
Chain of Serine/threonine-protein kinase PLK1 (P53350 whole entry): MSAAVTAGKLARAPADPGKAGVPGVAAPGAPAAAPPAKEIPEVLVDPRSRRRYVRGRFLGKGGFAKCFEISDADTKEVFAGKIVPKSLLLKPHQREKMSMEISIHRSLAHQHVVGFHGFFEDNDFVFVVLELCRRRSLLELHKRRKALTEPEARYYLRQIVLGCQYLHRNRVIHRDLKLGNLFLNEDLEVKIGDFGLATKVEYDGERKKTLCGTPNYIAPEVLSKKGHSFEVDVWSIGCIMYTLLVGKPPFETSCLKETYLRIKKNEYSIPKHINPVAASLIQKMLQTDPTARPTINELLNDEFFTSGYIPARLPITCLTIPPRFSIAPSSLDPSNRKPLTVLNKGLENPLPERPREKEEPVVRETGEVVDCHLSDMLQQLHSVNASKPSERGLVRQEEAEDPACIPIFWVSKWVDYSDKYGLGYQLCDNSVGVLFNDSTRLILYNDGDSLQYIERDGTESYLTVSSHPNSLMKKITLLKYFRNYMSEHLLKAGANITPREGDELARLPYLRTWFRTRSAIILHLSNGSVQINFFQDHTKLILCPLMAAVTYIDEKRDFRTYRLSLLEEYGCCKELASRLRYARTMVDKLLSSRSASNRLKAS

[9] = target: T4, Myotonin-protein kinase (Homo sapiens) (UniProt Q09013); assay: Selectivity interaction (KinomeScan (DiscoverX)) EUB0001049a DMPK; conditions: at 1 µM
T4 sequence (whole entry): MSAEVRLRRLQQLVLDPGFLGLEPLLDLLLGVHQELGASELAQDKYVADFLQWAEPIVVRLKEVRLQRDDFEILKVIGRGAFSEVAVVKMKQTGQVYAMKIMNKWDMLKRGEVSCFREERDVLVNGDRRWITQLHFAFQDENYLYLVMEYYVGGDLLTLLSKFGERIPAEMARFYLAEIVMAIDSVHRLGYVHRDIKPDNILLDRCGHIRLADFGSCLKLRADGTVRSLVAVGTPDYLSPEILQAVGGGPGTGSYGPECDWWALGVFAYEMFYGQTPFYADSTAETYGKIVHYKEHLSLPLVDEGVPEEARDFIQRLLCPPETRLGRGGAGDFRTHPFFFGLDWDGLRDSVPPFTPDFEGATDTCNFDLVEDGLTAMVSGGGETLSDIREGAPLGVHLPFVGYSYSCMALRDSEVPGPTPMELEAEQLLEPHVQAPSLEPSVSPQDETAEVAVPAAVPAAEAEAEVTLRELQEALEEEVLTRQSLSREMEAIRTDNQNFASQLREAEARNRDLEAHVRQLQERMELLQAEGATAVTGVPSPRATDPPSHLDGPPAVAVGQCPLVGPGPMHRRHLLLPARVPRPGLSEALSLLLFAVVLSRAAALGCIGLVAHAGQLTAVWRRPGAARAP

Chain of MAP/microtubule affinity-regulating kinase 3 (Homo sapiens) (P27448 whole entry, looked up): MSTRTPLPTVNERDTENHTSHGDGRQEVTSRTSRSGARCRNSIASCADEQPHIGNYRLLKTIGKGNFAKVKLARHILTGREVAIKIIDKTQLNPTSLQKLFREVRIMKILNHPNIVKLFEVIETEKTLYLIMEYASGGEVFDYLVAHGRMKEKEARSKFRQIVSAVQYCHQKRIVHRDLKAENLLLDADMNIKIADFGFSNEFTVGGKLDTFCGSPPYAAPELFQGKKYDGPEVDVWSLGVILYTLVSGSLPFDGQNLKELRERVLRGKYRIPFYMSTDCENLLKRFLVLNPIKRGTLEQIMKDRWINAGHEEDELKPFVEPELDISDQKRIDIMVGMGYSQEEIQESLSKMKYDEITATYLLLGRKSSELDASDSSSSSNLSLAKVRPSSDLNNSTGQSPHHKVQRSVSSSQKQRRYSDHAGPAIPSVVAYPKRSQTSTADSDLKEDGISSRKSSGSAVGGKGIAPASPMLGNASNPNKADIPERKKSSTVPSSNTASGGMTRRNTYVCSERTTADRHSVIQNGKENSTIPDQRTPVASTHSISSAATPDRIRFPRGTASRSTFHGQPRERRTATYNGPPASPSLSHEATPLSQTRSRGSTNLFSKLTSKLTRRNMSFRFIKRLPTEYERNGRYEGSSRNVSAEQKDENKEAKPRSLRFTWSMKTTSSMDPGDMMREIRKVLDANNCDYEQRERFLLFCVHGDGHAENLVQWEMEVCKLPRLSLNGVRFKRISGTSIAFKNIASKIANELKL

dTM [1]: 0.7 K
Structure (SMILES): CN(C(=O)c1cnn2cccnc12)c1cc2c(cc1N1CCOCC1)C(=O)N(C[C@@H](F)C(C)(C)O)C2

% of inhibition [2]: -3%
Structure (SMILES): CN1Cc2nccc(-c3cn(C)nc3-c3ccc(F)cc3)c2C1=O

Structure (SMILES): Nc1cnc(N2CCc3cc(S(=O)(=O)Nc4c(F)cc(Cl)cc4F)cc(N4CCCC4=O)c32)nc1 [TP-020n]
% of control [3]: 85%

Structure (SMILES): O[C@H]1CC[C@H](Nc2ncc3nc(Nc4c(F)cc(F)cc4F)n([C@H]4CCOC4)c3n2)CC1
% of control [4]: 100%

Structure (SMILES): Cc1cc([C@@H](C)Nc2ccccc2C(=O)O)c2nc(N3CCOCC3)cc(=O)n2c1 [AZD-6482]
% of control [5]: 94% | % of control [6]: 100%

% of inhibition [7]: 7.59% | % of inhibition [8]: 4.41%
Structure (SMILES): CC[C@@H]1[C@H](F)C(=O)N[C@@H]1COc1nccc2cc(C(N)=O)c(OC)cc12 [ZIMLOVISERTIB]

Structure (SMILES): COc1cc(Nc2nc(C)cc(-c3cnn4nc(OC)ccc34)n2)cc(C(F)(F)F)c1
% of control [9]: 100%
